Laboratory results from patent EP1641803B1, “THIENOPYRIMIDINE DERIVATIVES AS POTASSIUM CHANNEL INHIBITORS” (Xention Limited, priority 2003, dated 2004).

Key:
human Kv1.5 = target: T1, human Kv1.5 (Homo sapiens, UniProt P22460); test: Kv1.5 Rb+ Efflux Assay; format: cell-based; conditions: inhibition of 86Rb+ efflux through Kv1.5; cells stably transfected with human Kv1.5; 10 point concentration response curves n=2; normalised to 2.5mM 4 amino-pyridine block
T1 construct: expressed in transfected cells
Description: The pore of a potassium channel is permeable to other monovalent cations such as Rb^+ and Tl^+. Analysis of cellular efflux of potassium channel permeable ions enables potassium channel activity to be monitored directly. Cells stably transfected with cDNA for human Kv1.5 (in pEF6::VA-His-TOPO) were grown in Dulbecco's Modified Eagle media (DMEM) alpha supplemented with 10% Fetal Calf Serum (FCS), 20 µl/ml penicillin (5000U/ml) streptomycin (5000µg/ml), 10µl/ml [100x] glutamine, and blasticidin (7.5µg/ml). Cells were dispensed into 96 well cellstar TC plates and allowed to grow until a confluent monolayer was visible. On the morning of the assay run, cold media was aspirated using the TECAN plate washer, and a 50µl media spike containing 2µCi/ml (37kBq/ml) ^86Rb^+ added to each well containing cells using the Shallow-Well Matrix Platemate. Plates were placed in a incubator at 37°C for a minimum of 3 hours. Unloaded ^86Rb^+ in the "hot" media was aspirated and each well washed 4x250µl with Earls Balanced Salt Solution (EBSS) which contained 5mM KCl, 140mM NaCl, 2mM CaCl2, 1mM MgSO4, 10mM HEPES, and 5mM glucose, pH 7.4, 290-300 mOsm. These cells were then pre-incubated with 50µl of EBSS +/- test compounds for 10 minutes at room temperature. After the 10 minute incubation, 50µl of modified EBSS which contained 145mM KCl, 2mM CaCl2, 1mM MgSO4, 10mM HEPES, 5mM glucose, pH 7.4, 290-300 mOsm, was added, and the cells were incubated for a further 10 minutes at room temperature. The high KCl EBSS was used to depolarise cells to a membrane potential that would activate Kv1.5 channels. After the final incubation 80µl/100µl of the reaction from each well was transferred to equivalent wells in a Packard "Optiplate" white 96 well plate and counted in a Packard TopCount liquid scintillation counter by Cerenkov emission. Percentage inhibition ^86Rb^+ efflux through Kv1.5 was calculated by normalisation to 2.5mM 4 amino-pyridine control block of Kv1.5. Alternatively cells were loaded with ^85Rb^+ and quantified by atomic absorption spectroscopy. IC50 determinations were derived from 10 point concentration response curves n=2 using the method described above. Data was fitted as variable slope sigmoidal fit using Graphpad Prism (V3.02) software.

hKv1.5 = hKv1.5 (Homo sapiens, UniProt P22460); test: Kv1.5 Autopatch Electrophysiology (whole cell patch-clamp); format: cell-based; conditions: compound at 1µM, room temperature (22-24°C), held at -80mV, step to 0mV for 1000ms, total charge measured
How it was run: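 Whole-cell automated patch-clamp at 22-24°C, compounds tested at 1µM in external bather (KCl/K-gluconate, pH 7.4; KCl/EGTA pipette). Cells held at -80mV and stepped to 0mV for 1000ms every 5s; only cells with IK > 500 pA and Rseries ≤18 MΩ used. Read-out: total charge over the whole step.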

hKv1.5, sequence (P22460 whole entry): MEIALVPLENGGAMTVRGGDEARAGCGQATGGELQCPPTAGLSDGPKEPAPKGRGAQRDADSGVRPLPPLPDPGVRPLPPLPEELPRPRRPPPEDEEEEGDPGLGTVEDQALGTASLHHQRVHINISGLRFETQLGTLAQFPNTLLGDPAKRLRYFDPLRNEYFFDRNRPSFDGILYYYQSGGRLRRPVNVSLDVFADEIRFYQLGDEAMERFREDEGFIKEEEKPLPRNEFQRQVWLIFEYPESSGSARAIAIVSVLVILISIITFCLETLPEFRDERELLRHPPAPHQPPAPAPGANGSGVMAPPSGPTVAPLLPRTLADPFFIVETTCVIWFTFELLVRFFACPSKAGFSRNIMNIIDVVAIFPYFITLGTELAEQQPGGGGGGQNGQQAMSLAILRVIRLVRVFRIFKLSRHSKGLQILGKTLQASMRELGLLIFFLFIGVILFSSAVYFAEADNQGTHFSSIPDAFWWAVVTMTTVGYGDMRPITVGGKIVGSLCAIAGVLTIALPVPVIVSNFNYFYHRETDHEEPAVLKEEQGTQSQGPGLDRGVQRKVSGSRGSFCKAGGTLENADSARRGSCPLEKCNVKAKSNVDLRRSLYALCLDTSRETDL
T1 sequence (P22460 whole entry): as above

IC50 (human Kv1.5) [nM] | inhibition at 1 µM (hKv1.5) [%] | SMILES
16800 | 27.2 | Clc1ccc(-c2csc3ncnc(NCCc4ccccc4)c23)cc1 [Example 136, [5-(4-Chloro-phenyl)-thieno[2,3-d]pyrimidin-4-yl]-phenethyl-amine]
10700 | 96 | Brc1ccc(-c2csc3ncnc(NCCc4ccc5c(c4)OCCO5)c23)cc1 [Example 137, [5-(4-Bromo-phenyl)-thieno[2,3-d]pyrimidin-4-yl]-[2-(2,3-dihydro-benzo[1,4]dioxin-6-yl)-ethyl]-amine]
1680 | 46.9 | COc1ccc(-c2csc3ncnc(NCc4ccco4)c23)cc1 [Example 139, Furan-2-ylmethyl-[5-(4-methoxy-phenyl)-thieno[2,3-d]pyrimidin-4-yl]-amine]
2710 | 74.2 | CCc1sc2ncnc(NCc3ccco3)c2c1-c1ccccc1 [Example 140, (6-Ethyl-5-phenyl-thieno[2,3-d]pyrimidin-4-yl)-furan-2-ylmethyl-amine]
2150 | 81.3 | CCc1sc2ncnc(NCc3ccco3)c2c1-c1ccoc1 [Example 141, (6-Ethyl-5-furan-3-yl-thieno[2,3-d]pyrimidin-4-yl)-furan-2-ylmethyl-amine]
1280 | 49.7 | Cc1ccccc1-c1csc2ncnc(NCc3ccccn3)c12 [Example 142, Pyridin-2-ylmethyl-(5-o-tolyl-thieno[2,3-d]pyrimidin-4-yl)-amine]
1320 | 63 | Cc1ccccc1-c1csc2ncnc(NCc3ccco3)c12 [Example 143, Furan-2-ylmethyl-(5-o-tolyl-thieno[2,3-d]pyrimidin-4-yl)-amine]
1320 | 81 | CC(C)(C)c1ccc(-c2csc3ncnc(NCc4ccccn4)c23)cc1 [Example 144, [5-(4-tert-Butyl-phenyl)-thieno[2,3-d]pyrimidin-4-yl]-pyridin-2-ylmethyl-amine]
3050 | 68 | CC(C)(C)c1ccc(-c2csc3ncnc(NCc4ccco4)c23)cc1 [Example 145, [5-(4-tert-Butyl-phenyl)-thieno[2,3-d]pyrimidin-4-yl]-furan-2-ylmethyl-amine]
1680 | 81 | c1ccc(CNc2ncnc3scc(C4CCCCC4)c23)nc1 [Example 146, (5-Cyclohexyl-thieno[2,3-d]pyrimidin-4-yl)-pyridin-2-ylmethyl-amine]
2520 | 71 | c1coc(CNc2ncnc3scc(C4CCCCC4)c23)c1 [Example 147, (5-Cyclohexyl-thieno[2,3-d]pyrimidin-4-yl)-furan-2-ylmethyl-amine]
1510 | 88 | CC(C)c1nc(NCc2ccccn2)c2c(-c3ccccc3)csc2n1 [Example 148, (2-Isopropyl-5-phenyl-thieno[2,3-d]pyrimidin-4-yl)-pyridin-2-ylmethyl-amine]
140 | 96.8 | Cc1nc(NCc2ccco2)c2c(-c3ccccc3)csc2n1 [Example 150, Furan-2-ylmethyl-(2-methyl-5-phenyl-thieno[2,3-d]pyrimidin-4-yl)-amine]
1680 | 95 | FC(F)(F)c1nc(NCc2ccccn2)c2c(-c3ccccc3)csc2n1 [Example 151, (5-Phenyl-2-trifluoromethyl-thieno[2,3-d]pyrimidin-4-yl)-pyridin-2-ylmethyl-amine]
390 | 98.7 | CCc1nc(NCc2ccccn2)c2c(-c3ccccc3)csc2n1 [Example 152, (2-Ethyl-5-phenyl-thieno[2,3-d]pyrimidin-4-yl)-pyridin-2-ylmethyl-amine]
3630 | 96.8 | CCc1nc(NCc2ccco2)c2c(-c3ccccc3)csc2n1 [Example 153, (2-Ethyl-5-phenyl-thieno[2,3-d]pyrimidin-4-yl)-furan-2-ylmethyl-amine]
1620 | 92.2 | Cc1nc(NCc2ccccn2)c2c(-c3ccc(F)cc3)csc2n1 [Example 155, [5-(4-Fluorophenyl)-2-methyl-thieno[2,3-d]pyrimidin-4-yl]-pyridin-2-ylmethyl-amine]
240 | 88 | Cc1sc2ncnc(NCc3ccccn3)c2c1-c1ccccc1 [Example 157, (6-Methyl-5-phenyl-thieno[2,3-d]pyrimidin-4-yl)-pyridin-2-ylmethyl-amine]
17700 | 83.4 | c1ccc(-c2csc3ncnc(NC4CCCc5ccccc54)c23)cc1 (stereo not drawn) [Example 158, (5-Phenyl-thieno[2,3-d]pyrimidin-4-yl)-(1,2,3,4-tetrahydro-naphthalen-1-yl)-amine]
13400 | 83 | Cc1sc2ncnc(N3CCCCC3)c2c1-c1ccccc1 [Example 159, 6-Methyl-5-phenyl-4-piperidin-1-yl-thieno[2,3-d]pyrimidine]
25500 | 79.4 | c1ccc(-c2csc3ncnc(NCc4csc(-c5cccs5)n4)c23)cc1 [Example 161, (5-Phenyl-thieno[2,3-d]pyrimidin-4-yl)-(2-thiophen-2-yl-thiazol-4-ylmethyl)-amine]
19700 | 74.5 | c1ccc(-c2nc(CNc3ncnc4scc(-c5ccccc5)c34)cs2)cc1 [Example 162, (2-Phenyl-thiazol-4-ylmethyl)-(5-phenyl-thieno[2,3-d]pyrimidin-4-yl)-amine]
14300 | 70.8 | c1ccc(CCNc2ncnc3scc(-c4cccs4)c23)cc1 [Example 163, Phenethyl-(5-thiophen-2-yl-thieno[2,3-d]pyrimidin-4-yl)-amine]
530 | 92.8 | Brc1sc2ncnc(NCc3ccccn3)c2c1-c1ccccc1 [Example 164, (6-Bromo-5-phenyl-thieno[2,3-d]pyrimidin-4-yl)-pyridin-2-ylmethyl-amine]
1600 | 91 | Brc1sc2ncnc(NCc3ccco3)c2c1-c1ccccc1 [Example 165, (6-Bromo-5-phenyl-thieno[2,3-d]pyrimidin-4-yl)-furan-2-ylmethyl-amine]
4130 | 96 | Clc1nc(NCc2ccccn2)c2c(-c3ccccc3)csc2n1 [Example 181, (2-Chloro-5-phenyl-thieno[2,3-d]pyrimidin-4-yl)-pyridin-2-ylmethyl-amine]
1040 | 75.8 | Clc1nc(NCc2ccco2)c2c(-c3ccccc3)csc2n1 [Example 182, (2-Chloro-5-phenyl-thieno[2,3-d]pyrimidin-4-yl)-furan-2-ylmethyl-amine]
2520 | 98 | c1ccc(-c2csc3nc(NCC4CC4)nc(NCc4ccccn4)c23)cc1 [Example 188, N^2-Cyclopropylmethyl-5-phenyl-N^4-pyridin-2-ylmethyl-thieno[2,3-d]pyrimidine-2,4-diamine]
260 | 97.1 | OCCNc1nc(NCc2ccccn2)c2c(-c3ccccc3)csc2n1 [Example 190, 2-{5-Phenyl-4-[(pyridin-2-ylmethyl)-amino]-thieno[2,3-d]pyrimidin-2-ylamino}-ethanol]
470 | 91.8 | COc1nc(NCc2ccccn2)c2c(-c3ccccc3)csc2n1 [Example 191, (2-Methoxy-5-phenyl-thieno[2,3-d]pyrimidin-4-yl)-pyridin-2-ylmethyl-amine]
